Results as given in ChEMBL document CHEMBL1141163, “QSAR studies of copper azamacrocycles and thiosemicarbazones: MM3 parameter development and prediction of biological properties” (J Med Chem, 2005).

Assay: Partition coefficient (logP)
Format: physicochemical
Details: octanol/water

**Q.** For Copper(II) Complex, which logP is on record?
**A.** -2.29
